Laboratory results from paper PMC11956013, “Structure–Activity Relationships and Evaluation of 2-(Heteroaryl-cycloalkyl)-1H-indoles as Tauopathy Positron Emission Tomography Radiotracers” (Journal of Medicinal Chemistry, 2025).
Like-named read-outs stand apart in the source and are kept apart here. Each block holds one compound with its values, some of them ahead of it.

Tests used:
alpha1A (h) = target: T1, alpha1A (h) (Homo sapiens, UniProt P35348); assay: Eurofins panel: alpha1A (h) (antagonist radioligand); details: reference compound, alpha1A (h)
T1 sequence (P35348 1-466): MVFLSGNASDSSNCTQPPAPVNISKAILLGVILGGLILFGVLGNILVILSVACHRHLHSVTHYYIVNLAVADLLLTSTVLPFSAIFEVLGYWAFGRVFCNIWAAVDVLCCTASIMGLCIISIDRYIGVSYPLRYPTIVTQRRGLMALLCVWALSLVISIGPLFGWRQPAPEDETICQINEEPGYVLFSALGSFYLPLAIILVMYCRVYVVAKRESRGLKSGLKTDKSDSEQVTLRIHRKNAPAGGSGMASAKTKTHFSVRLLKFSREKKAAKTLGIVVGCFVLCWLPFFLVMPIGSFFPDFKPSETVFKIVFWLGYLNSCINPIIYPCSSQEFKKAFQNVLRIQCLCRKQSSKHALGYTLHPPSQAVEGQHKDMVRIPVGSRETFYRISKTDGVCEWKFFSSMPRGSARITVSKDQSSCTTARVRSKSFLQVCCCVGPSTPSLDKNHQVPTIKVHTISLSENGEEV

[1] = target: T2, aggregated tau (mixed 3R/4R-tau) in AD brain tissue homogenates (Homo sapiens, UniProt P10636); assay: In vitro competition (Ki) assay versus [^3H]7, AD brain tissue homogenate; assay type: binding; details: radioligand [^3H]7 ∼1 nM
Target sequence in this assay (P10636 623-695 limits assumed): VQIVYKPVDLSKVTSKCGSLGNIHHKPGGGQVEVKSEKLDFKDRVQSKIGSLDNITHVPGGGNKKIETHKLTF

[2] = target: T3, aggregated tau (4R-tau) in PSP brain tissue homogenates (Homo sapiens, UniProt P10636); assay: In vitro competition (Ki) assay versus [^3H]7, PSP brain tissue homogenate; assay type: binding; details: radioligand [^3H]7 ∼1 nM
T3 construct: from tissue
T3 sequence (P10636 1-441 isoform P10636-8): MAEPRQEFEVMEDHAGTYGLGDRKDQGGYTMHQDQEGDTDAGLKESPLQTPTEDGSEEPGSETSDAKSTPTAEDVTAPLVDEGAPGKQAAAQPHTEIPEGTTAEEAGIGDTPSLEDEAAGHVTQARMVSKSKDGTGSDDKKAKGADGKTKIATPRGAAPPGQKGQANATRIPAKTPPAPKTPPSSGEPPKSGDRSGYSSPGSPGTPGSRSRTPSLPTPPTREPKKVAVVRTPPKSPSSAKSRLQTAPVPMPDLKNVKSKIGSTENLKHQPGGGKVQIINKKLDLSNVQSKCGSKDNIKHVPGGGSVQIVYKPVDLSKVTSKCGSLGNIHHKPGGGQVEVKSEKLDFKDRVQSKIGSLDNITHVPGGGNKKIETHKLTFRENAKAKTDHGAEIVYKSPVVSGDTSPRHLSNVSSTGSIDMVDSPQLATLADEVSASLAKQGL

[3] = target: T3, aggregated tau (4R-tau) in PSP brain tissue homogenates; assay: In vitro competition (Ki) assay versus [^3H]8, PSP brain tissue homogenate; assay type: binding; details: radioligand [^3H]8 ∼1 nM
[4] = target: T2, aggregated tau (mixed 3R/4R-tau) in AD brain tissue homogenates; assay: In vitro competition (Ki) assay versus [^3H]8, AD brain tissue homogenate; assay type: binding; details: radioligand [^3H]8 ∼1 nM
Target sequence in this assay (P10636 623-708 limits assumed): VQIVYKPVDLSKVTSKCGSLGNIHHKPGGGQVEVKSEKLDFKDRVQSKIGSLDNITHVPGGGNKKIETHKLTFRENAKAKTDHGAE

[5] = target: GABAA1 (h) (alpha1,beta2,gamma2) (Homo sapiens, UniProt P14867+P47870); assay: GABAA1 (h) (alpha1,beta2,gamma2) (agonist radioligand), Eurofins assay 3051
Chain of GABAA1 (h) (alpha1,beta2,gamma2) (P18507 40-475): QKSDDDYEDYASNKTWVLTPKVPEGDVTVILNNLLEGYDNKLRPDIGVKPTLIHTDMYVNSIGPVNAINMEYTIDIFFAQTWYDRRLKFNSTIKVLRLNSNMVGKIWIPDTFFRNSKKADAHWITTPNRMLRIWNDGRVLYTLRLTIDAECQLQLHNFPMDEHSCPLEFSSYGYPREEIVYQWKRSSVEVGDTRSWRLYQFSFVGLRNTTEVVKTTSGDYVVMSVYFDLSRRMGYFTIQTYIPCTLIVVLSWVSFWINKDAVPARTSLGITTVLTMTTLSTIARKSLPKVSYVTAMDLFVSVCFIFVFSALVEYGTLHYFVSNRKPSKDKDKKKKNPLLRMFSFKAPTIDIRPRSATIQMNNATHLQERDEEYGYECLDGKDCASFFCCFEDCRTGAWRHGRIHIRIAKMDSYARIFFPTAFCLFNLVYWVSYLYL
Chain of GABAA1 (h) (alpha1,beta2,gamma2) (P14867 28-456): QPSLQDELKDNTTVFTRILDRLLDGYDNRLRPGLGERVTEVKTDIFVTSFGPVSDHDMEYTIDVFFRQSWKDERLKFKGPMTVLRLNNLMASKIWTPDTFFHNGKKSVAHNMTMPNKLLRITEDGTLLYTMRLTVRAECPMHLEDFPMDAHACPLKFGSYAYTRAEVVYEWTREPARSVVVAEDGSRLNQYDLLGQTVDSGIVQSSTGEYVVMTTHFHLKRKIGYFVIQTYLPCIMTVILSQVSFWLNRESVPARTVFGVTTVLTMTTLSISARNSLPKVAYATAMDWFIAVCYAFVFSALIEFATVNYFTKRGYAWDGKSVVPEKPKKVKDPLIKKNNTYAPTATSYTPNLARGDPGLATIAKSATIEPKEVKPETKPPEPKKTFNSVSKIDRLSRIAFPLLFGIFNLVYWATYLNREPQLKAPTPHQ
Chain of GABAA1 (h) (alpha1,beta2,gamma2) (P47870 25-512): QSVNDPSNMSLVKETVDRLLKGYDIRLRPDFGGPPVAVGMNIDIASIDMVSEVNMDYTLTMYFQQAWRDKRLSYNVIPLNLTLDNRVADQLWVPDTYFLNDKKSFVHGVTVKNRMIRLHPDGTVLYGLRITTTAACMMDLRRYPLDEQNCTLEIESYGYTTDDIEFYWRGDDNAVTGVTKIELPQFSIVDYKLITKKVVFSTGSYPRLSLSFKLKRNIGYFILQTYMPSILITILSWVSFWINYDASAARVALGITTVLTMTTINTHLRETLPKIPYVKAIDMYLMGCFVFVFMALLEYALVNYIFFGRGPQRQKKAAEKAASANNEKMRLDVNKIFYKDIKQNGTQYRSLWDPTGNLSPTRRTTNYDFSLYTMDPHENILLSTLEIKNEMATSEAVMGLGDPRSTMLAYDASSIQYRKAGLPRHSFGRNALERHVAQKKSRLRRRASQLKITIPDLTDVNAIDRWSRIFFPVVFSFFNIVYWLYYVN

[6] = target: T4, aggregated tau (3R-tau) in PiD brain tissue homogenates (Homo sapiens, UniProt P10636); assay: In vitro competition (Ki) assay versus [^3H]75, PiD brain tissue homogenate; assay type: binding; details: n = 3, mean ± SD
T4 construct: or only 3R-tau aggregates (PiD middle frontal gyrus); from tissue; host or cells: post-mortem human PiD brain, middle frontal gyrus homogenate
T4 sequence (P10636 1-410 isoform P10636-5): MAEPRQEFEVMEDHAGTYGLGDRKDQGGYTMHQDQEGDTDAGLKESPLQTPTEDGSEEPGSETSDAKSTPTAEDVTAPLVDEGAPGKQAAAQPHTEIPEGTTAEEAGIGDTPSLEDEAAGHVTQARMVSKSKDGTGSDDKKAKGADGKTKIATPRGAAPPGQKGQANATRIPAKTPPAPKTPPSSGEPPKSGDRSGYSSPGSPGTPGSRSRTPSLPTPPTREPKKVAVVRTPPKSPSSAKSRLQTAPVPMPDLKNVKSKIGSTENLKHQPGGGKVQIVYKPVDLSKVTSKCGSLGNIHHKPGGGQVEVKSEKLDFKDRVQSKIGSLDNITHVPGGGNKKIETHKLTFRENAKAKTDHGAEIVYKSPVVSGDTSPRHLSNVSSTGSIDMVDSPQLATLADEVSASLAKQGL

[7] = target: T2, aggregated tau (mixed 3R/4R-tau) in AD brain tissue homogenates; assay: In vitro competition (Ki) assay versus [^3H]75, AD brain tissue homogenate; assay type: binding; details: n = 3, mean ± SD
Target sequence in this assay (P10636 623-695 limits assumed): as the sequence (P10636 623-695 limits assumed) above

[8] = target: T3, aggregated tau (4R-tau) in PSP brain tissue homogenates; assay: In vitro competition (Ki) assay versus [^3H]75, PSP brain tissue homogenate; assay type: binding; details: n = 3, mean ± SD
[9] = target: aggregated tau (4R-tau) in CBD brain tissue homogenates (Homo sapiens, UniProt P10636); assay: In vitro competition (Ki) assay versus [^3H]75, CBD brain tissue homogenate; assay type: binding; parameters: from tissue; host or cells: post-mortem human CBD brain, middle frontal gyrus homogenate
Chain of aggregated tau (4R-tau) in CBD brain tissue homogenates (P10636 1-441 isoform P10636-8): as the sequence (P10636 1-441 isoform P10636-8) above

mGluR5 (h) = mGluR5 (h) (Homo sapiens, UniProt P41594); assay: Eurofins panel: mGluR5 (h) (agonist radioligand); details: reference compound, mGluR5 (h)
Chain of mGluR5 (h) (P41594 21-1212): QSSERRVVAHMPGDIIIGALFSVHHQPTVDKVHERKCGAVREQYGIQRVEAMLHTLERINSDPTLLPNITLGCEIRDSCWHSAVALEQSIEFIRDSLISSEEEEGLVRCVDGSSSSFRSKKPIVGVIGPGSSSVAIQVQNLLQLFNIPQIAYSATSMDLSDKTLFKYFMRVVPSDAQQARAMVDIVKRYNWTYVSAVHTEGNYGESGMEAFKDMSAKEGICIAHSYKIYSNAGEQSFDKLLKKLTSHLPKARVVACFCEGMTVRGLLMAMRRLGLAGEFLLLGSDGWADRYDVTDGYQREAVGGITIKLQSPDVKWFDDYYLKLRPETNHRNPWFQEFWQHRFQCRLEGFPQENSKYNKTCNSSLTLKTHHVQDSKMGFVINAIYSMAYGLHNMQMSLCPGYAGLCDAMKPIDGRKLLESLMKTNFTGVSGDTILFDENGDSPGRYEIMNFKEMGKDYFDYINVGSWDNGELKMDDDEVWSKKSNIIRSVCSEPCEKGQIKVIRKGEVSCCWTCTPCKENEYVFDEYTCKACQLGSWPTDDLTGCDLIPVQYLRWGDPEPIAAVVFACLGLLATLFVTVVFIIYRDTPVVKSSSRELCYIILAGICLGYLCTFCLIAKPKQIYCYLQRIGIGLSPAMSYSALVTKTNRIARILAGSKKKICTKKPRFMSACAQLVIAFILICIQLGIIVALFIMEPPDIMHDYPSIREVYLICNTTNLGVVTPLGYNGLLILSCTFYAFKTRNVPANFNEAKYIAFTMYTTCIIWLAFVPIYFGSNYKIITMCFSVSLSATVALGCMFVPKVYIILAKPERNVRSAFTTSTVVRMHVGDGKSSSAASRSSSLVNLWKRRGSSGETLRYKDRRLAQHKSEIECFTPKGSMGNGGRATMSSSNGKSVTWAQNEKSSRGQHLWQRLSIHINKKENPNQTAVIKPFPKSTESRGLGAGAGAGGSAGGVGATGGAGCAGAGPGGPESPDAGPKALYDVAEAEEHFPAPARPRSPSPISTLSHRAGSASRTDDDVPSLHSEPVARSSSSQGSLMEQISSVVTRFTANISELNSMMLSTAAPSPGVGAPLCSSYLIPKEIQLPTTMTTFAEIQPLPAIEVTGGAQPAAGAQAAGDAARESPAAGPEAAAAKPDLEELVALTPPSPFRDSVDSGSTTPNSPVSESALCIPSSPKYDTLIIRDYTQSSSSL

[10] = target: T5, PiB binding site on amyloid-β in AD brain tissue homogenates (Homo sapiens, UniProt P05067); assay: In vitro competition (Ki) assay versus [^3H]PiB, AD brain tissue homogenate; details: radioligand [^3H]PiB
T5 construct: from tissue; host or cells: post-mortem human AD brain, middle frontal gyrus homogenate
T5 sequence (P05067 672-713 limits assumed): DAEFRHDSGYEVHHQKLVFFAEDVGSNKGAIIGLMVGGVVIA

[11] = read-out: Concurrent IC50, Specific binding
[12] = read-out: Concurrent Ki, Specific binding
[13] = PiD brain tissue homogenate, radioligand [^3H]75
[14] = AD brain tissue homogenate, radioligand [^3H]75

SMILES: COc1cccc(OC)c1OCCNCC1COc2ccccc2O1 (stereo not shown) [WB 4101]
- IC50 (alpha1A (h); [11]): 0.378 nM
- Ki (alpha1A (h); [12]): 0.189 nM
- nH, Specific binding (alpha1A (h)): 1.2607

SMILES: N#Cc1ccc2cc(-c3cnc(N4CC(O)C(F)C4)nc3)[nH]c2c1 (stereo not shown) [Compound 24, 2-(2-(3-Fluoro-4-hydroxypyrrolidin-1-yl)pyrimidin-5-yl)-1H-indole-6-carbonitrile]
- Ki [1]: 120 nM
- Ki [2]: 129 nM
- Ki [3]: 76 nM
- Ki [4]: 74 nM

SMILES: NCc1cc(=O)[nH]o1 [muscimol]
- IC50 [5]: 59.1 nM
- Ki [5]: 39.4 nM
- nH ([5]; Specific binding, reference compound): 0.6998

SMILES: Cn1c(-c2cnc(N3CCOCC3)nc2)cc2ccc(F)cc21 [Compound 109, 4-(5-(6-Fluoro-1-methyl-1H-indol-2-yl)pyrimidin-2-yl)morpholine]
- Ki [1]: 22 nM
- Ki [2]: 32 nM

SMILES: N[C@@H](Cn1oc(=O)[nH]c1=O)C(=O)O [L-Quisqualate]
- IC50 (mGluR5 (h); [11]): 42.6 nM
- Ki (mGluR5 (h); [12]): 11.1 nM
- nH, Specific binding (mGluR5 (h)): 1.174

SMILES: Fc1ccc2cc(-c3cnc(N4CCCCC4)nc3)[nH]c2c1 [Compound 21, 6-Fluoro-2-(2-(piperidin-1-yl)pyrimidin-5-yl)-1H-indole]
- Ki [10]: 49 nM

SMILES: Fc1ccc(-c2ccc3c(c2)[nH]c2ccncc23)cn1 [Compound 1, flortaucipir]
- Ki ([8]; PSP tissue, +10 μM Ro-41-1040 (MAO-A inhibitor) and 10 μM deprenyl (MAO-B inhibitor)): 1860 ± 39 nM
- Ki ([6]; PiD tissue, +10 μM Ro-41-1040 (MAO-A inhibitor) and 10 μM deprenyl (MAO-B inhibitor)): 1490 ± 26 nM
- Ki [9]: 2130 ± 58 nM
- Ki ([7]; AD tissue, +10 μM Ro-41-1040 (MAO-A inhibitor) and 10 μM deprenyl (MAO-B inhibitor)): 1480 ± 53 nM

Further lines, results first:

- Ki [1]: 11 nM
- Ki [2]: 24 nM
SMILES: OC1CCN(c2ncc(-c3cc4ccccc4[nH]3)cn2)CC1 [Compound 52, 1-(5-(1H-Indol-2-yl)pyrimidin-2-yl)piperidin-4-ol]

- Ki [3]: 12 nM
- Ki [4]: 11 nM
SMILES: Fc1ccc2cc(-c3cnc(N4CCOCC4)cc3F)[nH]c2c1 [Compound 88, 4-(4-Fluoro-5-(6-fluoro-1H-indol-2-yl)pyridin-2-yl)morpholine]

- Ki [6, 13]: 1970 ± 96 nM
- Ki [7, 14]: 3020 ± 283 nM
SMILES: Fc1cc(-c2ccc3c(n2)[nH]c2ccncc23)ccn1 [Compound 2]

- Ki ([8]; PSP brain tissue homogenate, radioligand [^3H]75): 780 ± 32 nM
- Ki [6, 13]: 656 ± 36 nM
- Ki ([9]; CBD brain tissue homogenate, radioligand [^3H]75, n = 3, mean ± SD): 888 ± 32 nM
- Ki [7, 14]: 240 ± 6 nM
SMILES: Nc1c(F)ccc2cnc(-n3ccc4ccncc43)cc12 [Compound 4, florquinitau]

- Ki [1]: 39 nM
- Ki [2]: 32 nM
- Ki [3]: 31 nM
- Ki [4]: 34 nM
SMILES: OC1CN(c2ncc(-c3cc4ccccc4[nH]3)cn2)CC1F (stereo not shown) [Compound 28, 1-(5-(1H-Indol-2-yl)pyrimidin-2-yl)-4-fluoropyrrolidin-3-ol]

- Ki [3]: 20 nM
- Ki [4]: 17 nM
SMILES: Fc1ccc2cc(-c3ncc(N4CCOCC4)cc3F)[nH]c2c1 [Compound 104, 4-(5-Fluoro-6-(6-fluoro-1H-indol-2-yl)pyridin-3-yl)morpholine]

- Ki [10]: 53 nM
SMILES: Fc1ccc2cc(-c3ccc(N4CCOCC4)nc3)[nH]c2c1 [Compound 46, 4-(5-(6-Fluoro-1H-indol-2-yl)pyridin-2-yl)morpholine]
